Data reported in patent publication US5215744A, “Methods for the treatment of tumors” (Boehringer Ingelheim GmbH, priority 1987, dated 1993).
“Also recorded” adds a separate entry of the source. Where two headings read alike, the source gives them in different places.

Key:
[1] = several hours after administration; cited from earlier work
[2] = tested on: explanted mouse peritoneal leukocytes and other cells; settings: in vitro; cited from earlier work
MM-1CB cells [3] = assay: Survival of MM-1CB cells after sequential dipyridamole / interferon β treatment; assay type: cell-based, human; settings: vs simultaneous administration; cells cultured in dishes (FIG. 11)
Method: Experimental numbers (Exp. Nos.) 1, 2, and 3 were the results obtained under reported cell-culture-conditions. In Exp. Nos. 4 and 5, treatment with DP alone and without IFN β was done during […] of the experiment schedule, respectively. In Exp. No. 6 IFN β treatment alone, without the DP addition, was done after DP treatment alone for the first 24 hours of the experimental schedule; after the DP treatment culture medium was depleted and cells were washed three times with Eagle's minimal essential medium, followed by being cultured with medium containing IFN β.

KT cells [4] = assay: Cell proliferation inhibition test (trypan-blue exclusion), continuous exposure; assay type: cell-based, human
Description: (§1) Four established cell lines were used. These were MM-1CB, derived from tissues of malignant melanoma (level IV, pT4 N0 M0) in a person (Jpn. J. Dermatol. 96:947 (1986)); KT, derived from metastatic brain tumor in a person (J. Rad. Res. 26:59 (1985) and The 44th Meeting of Japanese Cancer Association, 718 (1985)); PLC/PRF/5, derived from human hepatoma (Brit. J. Cancer 34:509-515 (1976)) and a transformed cell line RSa (Virology 135:20-29 (1984), and J. Natl. Cancer Inst. 56:919-926 (1976)).
Cells were cultured with Eagle's minimal essential medium (EMEM) containing 10% fetal bovine serum (GIBCO, U.S.A.) and antibiotics ([…] streptomycin/ml and 100 units penicillin G/ml), in an incubator at 37° C. under 5% CO2.
Other chemical agents were purchased from the Nakarai Co., Ltd., Japan.
(§2) Changes of medium with and without agents were carried out every other day. The viable cells were determined by trypan-blue exclusion test and counted with a hemocytometer. The survival percentage ratio was expressed as (counts of viable cells in test dishes per counts of viable cells in control dishes) x 100%, as described elsewhere in, e.g., Mutation Research 106:357-376 (1982) and […]. 67:651-661 (1986).
Most of experiments were carried out under a dim light or in the dark. Results were expressed as the mean of values obtained from more than two independent experiments.

interferon in mice = settings: I.V.; cited from earlier work
DNA = settings: dipyridamole alone; cited from earlier work
[5] = tested on: antiviral activity in culture medium; assay: Antiviral activity (IFN production) in culture medium of treated cells; assay type: cell-based; settings: 0.1 μM dipyridamole-treated cells
Description: Virol. 67:651-611 (1986).

SEKI-F melanoma cells = assay: Survival after continuous exposure to dipyridamole and interferon β; assay type: cell-based, human
Description: Culture and the exposure conditions were the same as described in the previous manuscript.

metastasis = settings: cited from earlier work
[6] = tested on: human ovarian carcinoma cell line; settings: cited from earlier work
[7] = tested on: MM-1CB, KT and PLC/PRF/5 cells; assay: Anticellular action of HuIFN combined with dipyridamole (FIGS. 3-5); assay type: cell-based, human; settings: FIGS. 3B, 4B and 5B
Method: as §2

RSa cells = assay: DNA synthetic activity test ([^3 H]dTHD uptake into acid insoluble materials); assay type: cell-based, human; settings: for activity at 0.1 µM: Homo sapiens, 24 h, RSa cells, read-out: DNA synthesis (% of control)
Description: as §1, with “(1976)). [^3 H]dTHD uptake into acid insoluble materials were estimated in KT and RSa cells treated with the various agents, as described in J. Gen. Virol. […] 67:651-661 (1986).” for “(1976)).”

LIZIO leukemia = settings: with MTX; cited from earlier work
[8] = tested on: plasminogen activator-like protease; assay: Protease activity after dipyridamole exposure (^125 I-fibrin release); assay type: cell-based, human (MM-1CB cells); settings: dipyridamole alone; MM-1CB, 30 min (FIG. 13)
Description: Assay methods were similar to those described elsewhere (Suzuki et al., Mutation Res. 198:207-214 (1988)). Results were expressed as the total amount of ^125 I-radioactivity released from the labelled fibrin per protein contents.

[9] = tested on: ridgway osteogenic sarcoma; settings: with MTX; cited from earlier work
KT cells [10] = assay: Microscopic study of morphology; assay type: cell-based, human; settings: combination treatment, dipyridamole 0.1 μM and HuIFN-α 10 units/ml (FIG. 6)
Description: (§3) Cells seeded in test dishes were observed and photographed using OLYMPUS IMT-2 ([…] amplification).

MM-1CB = assay: Microscopic study of morphology; assay type: cell-based, human; settings: dipyridamole 0.1 μM with HuIFN-β 10 units/ml, 6 days (FIG. 2)
Description: as §3

PLC/PRF/5 cells = assay: Microscopic study of morphology; assay type: cell-based, human; settings: combination treatment, dipyridamole 0.1 μM and HuIFN-β 10 units/ml (FIG. 7)
Description: as §3

KT cells [11] = assay: DNA synthetic activity test ([^3 H]dTHD uptake into acid insoluble materials); assay type: cell-based, human; settings: 0.1 μM dipyridamole with HuIFN-β (FIG. 8)
Description: as §1
[^3 H]dTHD uptake into acid insoluble materials were estimated in KT and RSa cells treated with the various agents, as described in J. Gen. Virol. 67:651-661 (1986).

MM-1CB cells [12] = assay: Growth rate of established tumors in nude mice; assay type: in vivo, human tumor cells in nude mice
Method: Growth rate of tumors after the apparent tumor appeared and then were treated with agents.
the two agents combination

Compound: OCCN(CCO)c1nc(N2CCCCC2)c2nc(N(CCO)CCO)nc(N3CCCCC3)c2n1 [dipyridamole, 2,6-bis(diethanolamine)-4,8-dipiperidino-pyrimido[5,4-d]pyrimidin]
- concentration in blood [1]: a few micromoles
- interferon production [2]: induced interferon production in vitro in explanted mouse peritoneal leukocytes and other cells
- effect of dipyridamole pretreatment on proliferation (MM-1CB cells [3]): more effective than a simultaneous administration of the two agents
- synergistic inhibitory activity, susceptibility (KT cells [4]; HuIFN and dipyridamole (FIG. 4)): high susceptibility to the synergistic inhibitory activity
- inhibition of cell replication, combination (KT cells [4]; HuIFN-α with simultaneous dipyridamole (FIG. 4)): inhibition of cell replication was enhanced
- influence on KT cell replication (KT cells [4]; dipyridamole alone, less than 0.1 μM (FIG. 4B)): scarcely influenced KT cell replication
- concentration that enhances the inhibitory effect of HuIFN-α (KT cells [4]; with HuIFN-α (FIG. 4B)): less than 0.1 μM
- interferon induction in mice (interferon in mice): induced interferon in mice after I.V. administration
- DNA damage (DNA): does not damage DNA
- levels of antiviral activity in culture medium [5]: no detectable levels of antiviral activity
- inhibitory effect on cell proliferation (SEKI-F melanoma cells; dipyridamole alone (FIG. 14)): little inhibitory effect on cell proliferation
- enhancement of cell proliferation inhibition induced by interferon (SEKI-F melanoma cells; with interferon β 100-1000 IU/ml, 6 days (FIG. 14)): can enhance cell proliferation inhibition induced by interferon
- metastatic effect (metastasis): potential metastatic effect
- cytotoxicity of its own ([6]; dipyridamole alone): no cytotoxicity of its own
- PALA activity ([6]; with PALA): increased PALA activity
- most effective concentration for the synergistic enhancement of HuIFN action [7]: less than 0.1 μM
- DNA synthesis inhibition, comparison in words (RSa cells; 0.1 μM dipyridamole or mopidamole, alone vs combined with HuIFN-α): inhibited less than with combined treatment with HuIFN-α; also recorded: significantly more effective than mopidamole/HuIFN-α
- activity at 0.1 µM (RSa cells; agent 0.1 μM combined with HuIFN-α 1 unit/ml): 61%
- activity at 0.1 µM (RSa cells; agent 0.1 μM, HuIFN-α 0 unit/ml): 92%
- antitumor activity of MTX (LIZIO leukemia): not dramatically improved
- activity of plasminogen activator-like protease [8]: induced after a few minutes of treatment
- antitumor activity of MTX [9]: not dramatically improved
- cellular morphological conditions (KT cells [10]): showed impairment after the combination treatment
- cell morphology (MM-1CB): morphologically impaired
- cellular morphological conditions (PLC/PRF/5 cells): showed impairment after the combination treatment
- enhancement of HuIFN inhibitory effect on DNA synthesis (KT cells [11]): remarkably enhanced
- depression of tumor growth, combination (MM-1CB cells [12]; two agents given after tumor reached more than about 1 cm in diameter (FIG. 10)): not drastically effective in depressing tumor growth
- effect of dipyridamole treatment prior to interferon (MM-1CB cells [12]; vs simultaneous administration (FIG. 10)): more effective than a simultaneous administration of the two agents
